Non-standard residues stand in square brackets, D forms with d. No end group written: not given here.
Tests used:
[1] = system: NBI-5788-reactive or MBP-reactive T cell lines from MS patients; experiment: Cross-reactivity of T cell lines (TCL) from MS patients, 3H-thymidine proliferation; type: cell-based, human
Experimental: To evaluate the degree of NBI-5788-specific reactivity induced by NBI-5788 treatment, we determined whether NBI-5788-reactive T cell lines generated from untreated or NBI-5788-treated patients cross-reacted with whole MBP or MBP peptide 83-99. T cell lines were generated from positive cultures in the frequency analysis by an additional cycle of co-culture with antigen. Specificity of positive lines was tested by culturing 2×10^4 T cells/well in triplicate with whole MBP, MBP83-99, NBI-5788 or medium alone in the presence of 10^5 APCs in a final volume of 200 μl/well. Two days later supernatants were pooled from replicate wells and frozen at −80° C. Wells were then pulsed with [^3H]-thymidine (1 μCi/well) for the final 18 hours of culture.

[2] = system: Dr2b restricted human T cell clones reactive to MBP; experiment: Human T cell proliferation, Dr2b restricted clones; type: cell-based
Experimental: Human T cells reactive to MBP (83-99) may alternatively be used to measure the ability of the peptide analog to inhibit proliferation of T cells induced by native MBP (83-99) peptide. MBP-specific T cells may be obtained as previously described by Martin et al., J. Immunol. 148:1359-1366, 1992. Briefly, T cell lines are established by culture of human T cells with irradiated, DR-matched peripheral blood cells in MEM supplemented with 2 mM L-glutamine, 50 μg/ml gentamicin, penicillin and streptomycin, 100 U/ml rIL-2, and 10% human AB negative serum. Proliferation of these T cell lines is stimulated by culturing a clone with varying concentration (1.1-30 μM) of native […] peptide, 50 μM of the peptide analog or SWM peptide, in the presence of irradiated, DR matched peripheral blood cells, following incubation for approximately 60 hours, the cells are pulsed with ^3H-thymidine for 12 hours and harvested. The amount of incorporated ^3H-thymidine is measured.
The ability of the peptide analogs NBI-5719, 5748, 5765, 5788 and 5789 (SEQ ID NOs: 4-8 respectively) to affect human T cell proliferation was assessed. A constant amount of peptide analog or the control peptide SWM (50 μM) was cultured with varying concentrations of native MBP(83-99) peptide (1.1-30 μM) in the presence of irradiated, DR matched peripheral blood cells and T cell clones derived from various MS patients. Human T cells (1×10^6) were cultured with DR matched, irradiated peripheral blood cells (PBL, 5×10^6) in medium containing IMDM supplemented with 3 μM MBP83-99, 2 mM L-glutamine, 50 μg/ml gentamicin penicillin/streptomycin, 100 U/ml r1L-2 and 10% human AB-negative serum. Cells were cultured for approximately 60 hours, pulsed with tritiated thymidine for 12 hours, and harvested. The amount of tritiated thymidine incorporated was measured, and the data represented as the mean plus or minus the standard error of the mean of replicate samples.
The ability of the peptide analog to inhibit the proliferative response of MBP-reactive T cells isolated from Dr2b (DrB1* 1501) individuals was determined. A constant amount of NBI-5788 (50 μM) was cultured with varying concentrations of native peptide (1.1-30 μM) in the presence of irradiated, DR matched peripheral blood cells and T cell clones derived from various MS patients.

[3] = system: T cell lines LW 80, 88, 90 and 93; experiment: Specificity and phenotype of APL-reactive T cell lines from patient; type: cell-based, human; settings: 25 μg/ml antigen
Experimental: Four cell cultures from one patient ([…], 32% frequency) showing a response (> three-fold over background) were expanded into cell lines (LW 80, 88, 90 and 93) by incubation in IL-2 for 11-14 days (1-2 passages). Once sufficient cells had grown up, they were cultured with either medium alone or 25 μg/ml of either whole MBP, MBP (83-99) or APL NBI-5788. After 24 hours, the supernatants were collected and the level of cytokines determined (see FIGS. 22 to 26). The remaining cultures were pulsed with radiolabeled thymidine and the extent of incorporation determined.

[4] = patient MS-1, dose 20 mg, TCL 4

MBP(83-99) (83E>a, 84N>K, 89F>L, and 91K>A) ([dA]KPVVHLFANIVTPRTP) [NBI-5788]
whole MBP-reactive TCL from treated patients cross-reacting with NBI-5788 ([1]; 1 of 35 TCL): 2.9%
NBI-5788-reactive TCL from treated patients cross-reacting with whole MBP ([1]; 1 of 43 TCL): 2.3%
NBI-5788-reactive TCL from treated patients cross-reacting with both MBP83-99 and whole MBP ([1]; 2 of 43 TCL): 4.7%
whole MBP-reactive TCL from treated patients cross-reacting with MBP83-99 and NBI-5788 ([1]; 3 of 35 TCL): 8.6%
whole MBP-reactive TCL from treated patients cross-reacting with MBP-83-99 ([1]; 6 of 35 TCL): 17.1%
NBI-5788-reactive TCL from treated patients cross-reacting with MBP83-99 ([1]; 12 of 43 TCL): 27.9%
proliferative response of MBP-reactive TCL to antigen ([1]; patient MS-1, dose 20 mg, TCL 2): 6,090 ± 102
proliferative response of MBP-reactive TCL to antigen [1, 4]: 4,164 ± 123
proliferative response of NBI-5788-reactive TCL to antigen [1, 4]: 4,112 ± 349
proliferative response of MBP-reactive TCL to antigen ([1]; patient MS-1, dose 20 mg, TCL 5): 3,115 ± 56
proliferative response of MBP-reactive TCL to antigen ([1]; patient MS-1, dose 20 mg, TCL 10): 2,794 ± 152
proliferative response of MBP-reactive TCL to antigen ([1]; patient MS-1, dose 20 mg, TCL 14): 15,780 ± 214
proliferative response of MBP-reactive TCL to antigen ([1]; patient MS-1, dose 20 mg, TCL 26): 2,559 ± 74
proliferative response of NBI-5788-reactive TCL to antigen ([1]; patient MS-1, dose 20 mg, TCL 36): 18,259 ± 2011
proliferative response of MBP-reactive TCL to antigen ([1]; patient MS-1, dose 20 mg, TCL 45): 2,559 ± 637
proliferative response of MBP-reactive TCL to antigen ([1]; patient MS-2, dose 20 mg, TCL 14): 2,566 ± 421
proliferative response of MBP-reactive TCL to antigen ([1]; patient MS-3, Pretreat., TCL 9): 6,468 ± 586
proliferative response of NBI-5788-reactive TCL to antigen ([1]; patient MS-3, dose 20 mg, TCL 2): 19,315 ± 1,310
proliferative response of NBI-5788-reactive TCL to antigen ([1]; patient MS-3, dose 20 mg, TCL 4): 50,630 ± 11,709
proliferative response of NBI-5788-reactive TCL to antigen ([1]; patient MS-3, dose 20 mg, TCL 18): 10,308 ± 1,283
proliferative response of NBI-5788-reactive TCL to antigen ([1]; patient MS-3, dose 20 mg, TCL 30): 48,278 ± 1,070
proliferative response of MBP-reactive TCL to antigen ([1]; patient MS-4, dose 20 mg, TCL 7): 7,492 ± 716
proliferative response of NBI-5788-reactive TCL to antigen ([1]; patient MS-4, dose 20 mg, TCL 18): 26,017 ± 802
proliferative response of NBI-5788-reactive TCL to antigen ([1]; patient MS-5, dose 20 mg, TCL 15): 32,597 ± 1,856
proliferative response of NBI-5788-reactive TCL to antigen ([1]; patient MS-5, dose 20 mg, TCL 39): 24,326 ± 3,724
proliferative response of NBI-5788-reactive TCL to antigen ([1]; patient MS-5, dose 20 mg, TCL 43): 16,726 ± 1,121
proliferative response of NBI-5788-reactive TCL to antigen ([1]; patient MS-6, dose 10 mg, TCL 22): 43,085 ± 1,376
proliferative response of NBI-5788-reactive TCL to antigen ([1]; patient MS-6, dose 10 mg, TCL 38): 24,195 ± 613
proliferative response of NBI-5788-reactive TCL to antigen ([1]; patient MS-7, dose 5 mg, TCL 12): 17,749 ± 1,784
proliferative response of NBI-5788-reactive TCL to antigen ([1]; patient MS-7, dose 5 mg, TCL 28): 3,505 ± 1,446
proliferative response of MBP-reactive TCL to antigen ([1]; patient MS-7, dose 5 mg, TCL 46): 1,298 ± 113
proliferative response of MBP-reactive TCL to antigen ([1]; patient MS-8, Placebo, TCL 26): 944 ± 259
proliferative response of MBP-reactive TCL to antigen ([1]; patient MS-8, Placebo, TCL 28): 1,437 ± 97
proliferative response of MBP-reactive TCL to antigen ([1]; patient MS-8, Placebo, TCL 38): 16,931 ± 1938
proliferative response of MBP-reactive TCL to antigen ([1]; patient MS-8, Pretreat., TCL 22): 2,636 ± 270
proliferative response of MBP-reactive TCL to antigen ([1]; patient MS-8, Pretreat., TCL 31): 936 ± 123
proliferative response of MBP-reactive TCL to antigen ([1]; patient MS-8, Pretreat., TCL 47): 3,448 ± 1,980
inhibition of response of Dr2b T cell clones to MBP peptide ([2]; 50 μM, three different T cell lines, FIGS. 16-18): inhibited the ability of the T cell clones to respond to MBP peptide in a concentration dependent fashion
inhibition of MBP-dependent proliferation of clone 5F6 ([2]; Dr2b restricted clone 5F6, 50 μM, FIG. 19): inhibited the MBP-dependent proliferation in a concentration dependent fashion
thymidine incorporation of T cell line ([3]; Line 80 of patient): 25,696 ± 408 cpm
thymidine incorporation of T cell line ([3]; Line 88 of patient): 11,603 ± 424 cpm
thymidine incorporation of T cell line ([3]; Line 90 of patient): 25,317 ± 8,221 cpm
thymidine incorporation of T cell line ([3]; Line 93 of patient): 16,197 ± 2,095 cpm

From patent US6379670B1, “Methods for treatment of multiple sclerosis using peptide analogs of human myelin basic protein” (Neurocrine Biosciences, Inc., priority 1994, dated 2002)
